# From patent US10029994B2, “Isoxazole hydroxamic acid compounds as LpxC inhibitors” (priority 2014, dated 2018)
# Read-outs that look alike come from different tables or passages of the source.
# How the values were obtained:
# [1] = tested on: P. A. PAO1 NB52019; assay: MIC, broth microdilution (CLSI); assay type: cell-based, Pseudomonas aeruginosa; settings: for MIC: Pseudomonas aeruginosa, read-out: P. A. PAO1 NB52019 MIC
# Procedure: (§1) Bacterial isolates were cultivated from −70° C. frozen stocks by two consecutive overnight passages at 35° C. in ambient air on 5% blood agar (Remel, Lenexa, Kans.). Quality control strain, P. aeruginosa ATCC 27853, A. baumannii ATCC19606 and E. coli ATCC 25922 are from the American Type Culture Collection (ATCC; Rockville, Md.) and PAO1 was received from Dr. K. Poole.
# (§2) Minimal Inhibitory Concentrations (MICs) were determined by the broth microdilution method in accordance with Clinical and Laboratories Institute (CLSI) guidelines (CLSI M100-S25, Performance Standards for Antimicrobial Susceptibility Testing; Twenty-fifth Informational Supplement). In brief, fresh bacterial overnight cultures were resuspended in sterile saline, adjusted to a 0.5 McFarland turbidity standard and then diluted 2000-fold in cation adjusted Mueller-Hinton Broth II (MHB; Remel BBL) to yield a final inoculum of approximately 5×10^5 colony-forming units (CFU)/mL. Two-fold serial dilutions of compounds were prepared in 100% dimethyl sulfoxide (DMSO) at 100-fold the highest final assay concentration; the resulting dilution series of compounds were diluted 1:10 with sterile water. Ten μl of the drug dilution series in 10% DMSO was transferred to microtiter wells and 90 μl of bacterial suspension was inoculated into the wells. For testing the ability of compounds to potentiate the activity of known antibiotics, the assay was modified as follows; known antibiotics were added to the bacterial inoculum at 1.1-fold the final assay concentration indicated in Table A. All inoculated microdilution trays were incubated in ambient air at 35° C. for 20 hours. Following incubation, assay plates were read in a microtiter plate reader at 600 nm and visually inspected to confirm the MIC endpoint well with the OD value. The lowest concentration of the compound that prevented visible growth was recorded as the MIC. Performance of the assay was monitored by testing ciprofloxacin against the laboratory quality control strain in accordance with guidelines of the CLSI.
# [2] = tested on: E. C. ATCC 25922; assay: MIC, broth microdilution (CLSI); assay type: cell-based, Escherichia coli; settings: for MIC: Escherichia coli, ATCC25922, 20 h, read-out: E. C. ATCC 25922 MIC
# Procedure: as §1, §2
# [3] = tested on: E. C. ATCC 29522; assay: MIC in the presence of sub-inhibitory rifampicin (potentiation/synergy); assay type: cell-based, Escherichia coli; settings: +2 μg/ml rifampicin (RIF); broth microdilution, 35° C., 20 hours
# Procedure: as §1, §2
# [4] = tested on: A. B. ATCC 19606; assay: MIC, broth microdilution (CLSI); assay type: cell-based, Acinetobacter baumannii; settings: for MIC: Acinetobacter baumannii, read-out: A. B. ATCC 19606 MIC
# Procedure: as §1, §2
# [5] = tested on: A. B. ATCC 19606; assay: MIC in the presence of sub-inhibitory rifampicin (potentiation/synergy); assay type: cell-based, Acinetobacter baumannii; settings: +2 μg/ml rifampicin (RIF); broth microdilution, 35° C., 20 hours
# Procedure: as §1, §2
# [6] = target: T1, P. aeruginosa LpxC (Pseudomonas aeruginosa, UniProt P47205); assay: P. aeruginosa LpxC Inhibition Assay (LC-MS/MS); assay type: biochemical; settings: 1 nM P. aeruginosa LpxC, 30 min pre-incubation, 2 μM UDP-3-O-(R-3-hydroxydecanoyl)-GlcNAc, pH 7.5
# T1 construct: made in house
# T1 sequence (P47205 1-303): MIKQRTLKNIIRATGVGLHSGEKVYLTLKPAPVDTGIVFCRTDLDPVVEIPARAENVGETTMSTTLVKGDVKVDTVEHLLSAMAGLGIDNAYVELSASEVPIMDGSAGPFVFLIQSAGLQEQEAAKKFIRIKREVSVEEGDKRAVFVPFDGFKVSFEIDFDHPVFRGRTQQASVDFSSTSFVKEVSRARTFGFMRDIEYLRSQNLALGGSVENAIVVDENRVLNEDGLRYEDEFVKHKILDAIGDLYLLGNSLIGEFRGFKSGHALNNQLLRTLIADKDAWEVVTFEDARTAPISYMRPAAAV
# From the text: P. aeruginosa LpxC Inhibition Assay
# The P. aeruginosa LpxC protein is produced according to the general method of Hyland et al (Journal of Bacteriology 1997 179, 2029-2037: Cloning, expression and purification of UDP-3-O-acyl-GlcNAc deacetylase from Pseudomonas aeruginosa: a metalloamidase of the lipid A biosynthesis pathway). The LC-MS/MS method for quantitation of LpxC product was developed using an Agilent 1200 Capillary HPLC system coupled to an Applied Biosystems MDS Sciex 4000QTRAP mass spectrometer. Both instruments are controlled using the Applied Biosystems MDS Sciex Analyst software. LpxC reaction product (UDP-3-O—(R-3-hydroxyacyl)-glucosamine) was produced by hydrolysis of LpxC substrate catalyzed by P.a. LpxC and purified using reversed phase chromatography on a Phenomenex Luna C18(2) 4.6×50 mm column. An LpxC product calibration curve was generated to evaluate the sensitivity and dynamic range of the LC-MS/MS method. Briefly, compounds are pre-incubated with 1 nM P. aeruginosa LpxC for 30 min. at room temperature. Reactions are initiated by the addition of 2 μM UDP-3-O—(R-3-hydroxydecanoyl)-GlcNAc. Reactions are conducted in a 384-well plate with a total volume of 50 μL in each well containing 50 mM Sodium phosphate pH 7.5, 0.005% Trition X-100 for 20 min at room temperature. After quenching with 1.8% HOAc (5 μL of a 20% HOAc added to each well), reaction mixtures are analyzed using the LC-MS/MS method and peak areas are transformed into product concentration using a LpxC product calibration curve. Total activity (0% inhibition control) is obtained from reactions with no inhibitors and 100% inhibition control is the background using quenched samples before reaction starts. For IC50 determinations, peak areas are converted to percent inhibition in Microsoft Excel. Percent inhibition values are plotted vs. log compound concentration using XLfit. Data is fit to the four-parameter logistic equation using the non-linear regression algorithm in XLfit to return the IC50 and hill slope values.
# [7] = PAO1, broth microdilution, 35° C., 20 hours
# [8] = broth microdilution, 35° C., 20 hours
# [9] = ATCC19606, broth microdilution, 35° C., 20 hours
Compound,"MIC [1, 7] [µg/mL]","MIC [2, 8] [µg/mL]",E. C. ATCC 29522 (+2 μg/ml RIF) MIC [3] [µg/mL],"MIC [4, 9] [µg/mL]",A. B. ATCC 19606 (+2 μg/ml RIF) MIC [5] [µg/mL],"P. A. PAO1 NB52019 MIC [1, 8] [µg/mL]","E. C. ATCC 25922 MIC [2, 8] [µg/mL]","A. B. ATCC 19606 MIC [4, 8] [µg/mL]",IC50 [6] [nM],"MIC ([1]; PAO1, 20 h) [µg/mL]",MIC [2] [µg/mL],"MIC ([4]; ATCC19606, 20 h) [µg/mL]"
"COCC1CC(C#Cc2cc(CC[C@](C)(C(=O)NO)S(C)(=O)=O)no2)C1 (single isomer, unassigned) [Compound 1.15a]",2,8,0.25,> 64,0.25,–,–,–,–,–,–,–
"COCC1CC(C#Cc2cc(CC[C@](C)(C(=O)NO)S(C)(=O)=O)no2)C1 (single isomer, unassigned) [Compound 1.15b]",–,–,0.25,–,0.5,2,4,>64,–,–,–,–
"C[C@@](CCc1cc(C#CC2CC2)on1)(C(=O)NO)S(C)(=O)=O [Compound 1.1, (R)-4-(5-(cyclopropylethynyl)isoxazol-3-yl)-N-hydroxy-2-methyl-2-(methylsulfonyl)butanamide]",0.25,2,≤0.06,> 64,0.125,–,–,–,3,–,–,–
"C[C@@](CCc1cc(C#CC2CCC2)on1)(C(=O)NO)S(C)(=O)=O [Compound 1.2, (R)-4-(5-(cyclobutylethynyl)isoxazol-3-yl)-N-hydroxy-2-methyl-2-(methylsulfonyl)butanamide]",0.125,2,≤0.06,> 64,≤0.06,–,–,–,< 1,–,–,–
"CC(C)(C)C#Cc1cc(CC[C@](C)(C(=O)NO)S(C)(=O)=O)no1 [Compound 1.3, (R)-4-(5-(3,3-dimethylbut-1-yn-1-yl)isoxazol-3-yl)-N-hydroxy-2-methyl-2-(methylsulfonyl)butanamide]",0.25,8,2,> 64,0.25,–,–,–,< 1,–,–,–
"CC#Cc1cc(CC[C@](C)(C(=O)NO)S(C)(=O)=O)no1 [Compound 1.4, (R)—N-hydroxy-2-methyl-2-(methylsulfonyl)-4-(5-(prop-1-yn-1-yl)isoxazol-3-yl)butanamide]",0.25,4,≤0.06,> 64,2,–,–,–,2,–,–,–
"CCC#Cc1cc(CC[C@](C)(C(=O)NO)S(C)(=O)=O)no1 [Compound 1.5, (R)-4-(5-(but-1-yn-1-yl)isoxazol-3-yl)-N-hydroxy-2-methyl-2-(methylsulfonyl)butanamide]",0.25,4,≤0.06,> 64,≤0.06,–,–,–,1,–,–,–
"CC(C)C#Cc1cc(CC[C@](C)(C(=O)NO)S(C)(=O)=O)no1 [Compound 1.6, (R)—N-hydroxy-2-methyl-4-(5-(3-methylbut-1-yn-1-yl)isoxazol-3-yl)-2-(methylsulfonyl)butanamide]",0.5,4,0.125,> 64,0.125,–,–,–,< 1,–,–,–
"C[C@@](CCc1cc(C#CC2CC(F)C2)on1)(C(=O)NO)S(C)(=O)=O (stereo partly drawn) [Compound 1.13, (R)-4-(5-((3-fluorocyclobutyl)ethynyl)isoxazol-3-yl)-N-hydroxy-2-methyl-2-(methylsulfonyl)butanamide]",0.5,16,0.25,> 64,≤0.06,–,–,–,–,–,–,–
"C[C@@](CCc1cc(/C=C/C2CC2)on1)(C(=O)NO)S(C)(=O)=O [Compound 4.2, (R,E)-4-(5-(2-cyclopropylvinyl)isoxazol-3-yl)-N-hydroxy-2-methyl-2-(methylsulfonyl)butanamide]",0.25,8,0.125,> 64,0.5,–,–,–,–,–,–,–
"C/C=C(/C)c1cc(CC[C@](C)(C(=O)NO)S(C)(=O)=O)no1 [Compound 4.3-2, (R,Z)-4-(5-(but-2-en-2-yl)isoxazol-3-yl)-N-hydroxy-2-methyl-2-(methylsulfonyl)butanamide]",–,–,0.5,–,8,–,–,–,–,2,16,> 64
"C[C@@](CCc1cc(/C(F)=C\C2CC2)on1)(C(=O)NO)S(C)(=O)=O [Compound 4.5-2, (R,E)-4-(5-(2-cyclopropyl-1-fluorovinyl)isoxazol-3-yl)-N-hydroxy-2-methyl-2-(methylsulfonyl)butanamide]",8,64,2,> 64,16,–,–,–,–,–,–,–
